# Laboratory results taken from ChEMBL document CHEMBL1125975, “Enzymic and nonenzymic lipid peroxidation: inhibition by substituted phenoxazines” (Bioorg Med Chem Lett, 1991).
# Species: Oryctolagus cuniculus
# Test: Minimum concentration of compound was evaluated for inhibiting iron-dependent lipid peroxidation of rabbit brain homogenate in vitro
# Type: functional
row,SMILES,MIC
1,CN(O)C(=O)/C=C/c1ccc2c(c1)Nc1ccccc1O2,0.35 µM
2,COC(=O)c1ccc2c(c1)Nc1ccccc1O2,0.22 µM
3,O=C(O)c1cccc2c1Nc1ccccc1O2,4.4 µM
4,O=C(O)c1ccc2c(c1)Nc1ccccc1O2,0.44 µM
5,O=C(O)/C=C/c1ccc2c(c1)Nc1ccccc1O2,0.12 µM
6,c1ccc2c(c1)Nc1ccccc1O2 [PHENOXAZINE],0.055 µM

# The remaining compounds from weak to strong by MIC, led by results:
row,MIC,SMILES
1,9.1 µM,COc1ccc2c(c1C(=O)O)Nc1ccccc1O2
2,4.2 µM,COC(=O)c1cccc2c1Nc1ccccc1O2
3,3.7 µM,COc1ccc2c(c1C(=O)NO)Nc1ccccc1O2
4,0.65 µM,CN(O)C(=O)c1ccc2c(c1)Nc1ccccc1O2
5,0.41 µM,O=C(NO)c1ccc2c(c1)Nc1ccccc1O2
6,0.19 µM,CCOC(=O)/C=C/c1ccc2c(c1)Nc1ccccc1O2
